Reference: PubChem BioAssay AID179 (DTP/NCI, 2004)
Active and inactive are the calls of the source.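 The calls were made as follows: active = compounds giving half or more protection of infected cells from virus-caused growth loss, again on retest; inactive = the rest.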 Where a SMILES comes first, the peptide text is derived from it. The star is where a group is joined. CH2Cl = ClC*

Tested on: CEM cells HIV-1 protection, formazan growth assay
Test: NCI AIDS Antiviral Assay
Conditions: for IC50: measured here: growth of uninfected CEM cells
Outline: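 Steps: treat uninfected and HIV-1-infected human CEM cells at five drug levels; quantify growth by soluble formazan; retest any compound reaching 50% protection; classify actives from the retest.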

| Structure (SMILES) | EC50 | IC50 | outcome |
| --- | --- | --- | --- |
| Cc1c2ccccc2nc(CS(=O)(=O)c2ccccc2)[n+]1[O-] | > 200 µM | 12.6 µM | – |
| O=C(c1ccccc1)c1ccsc1C(=O)O | > 200 µM | > 200 µM | – |
| Cc1cccc(-c2nnc3s/c(=C\c4ccc(N(C)C)cc4)c(=O)n23)c1 | > 30.9 µM | > 30.9 µM | – |
| CO/C(=N\N=C\c1ccc(Cl)cc1Cl)c1ccncc1 | > 21.9 µM | > 21.9 µM | – |
| CCOC(=O)C(C(=O)OCC)C(NC(=O)Nc1cc(C(F)(F)F)ccc1OC)(C(F)(F)F)C(F)(F)F | – | – | inactive |
| NC(CO)C(=O)NCCS(=O)(=O)O (stereo not drawn) | > 100 µM | > 100 µM | – |
| O=C(OCc1ccccc1)N1C[C@@H](OCc2ccccc2)[C@@H](OCc2ccccc2)[C@H]1CO | > 200 µM | 10.7 µM | – |
| c1ccc2[nH]c(CSc3nc4ccccc4s3)nc2c1 | > 200 µM | 120 µM | – |
| NC(=O)C(N)C(F)c1ccccc1 (stereo not drawn) | > 200 µM | > 200 µM | – |
| CCc1n[nH]c(=O)n1/N=C/c1c(O)ccc2ccccc12 | > 200 µM | > 200 µM | – |
| Cc1nnc2n(c1=O)CCN2C | > 200 µM | > 200 µM | – |
| Cc1nc2c(=O)[nH]ncc2[nH]1 | > 200 µM | > 200 µM | – |
| CC(C)=C1C(=O)NC(=O)C1C(N)=O (stereo not drawn) | > 200 µM | > 200 µM | – |
| N#C/C(=C\c1cccc(F)c1)C(=O)c1ccccc1 | > 39.8 µM | > 39.8 µM | – |
| Nc1ccc(C(=O)O)c2[nH]c3ccccc3c(=O)c12 | – | – | inactive |
| O=C(Cc1ccccc1)OCCOCCOCCOCCOCCOCCOCCOCCOCCOC(=O)Cc1ccccc1 | – | – | inactive |
| O=C(CC(c1ccc2c(c1)OCO2)N1CCN(C(CC(=O)c2ccc(Br)cc2)c2ccc3c(c2)OCO3)CC1)c1ccc(Br)cc1 (stereo not drawn) | > 200 µM | > 200 µM | – |
| CN(C)C=Nc1cccc2cnccc12 | > 200 µM | 166 µM | – |
| COc1ccc2c(c1OC)C1CCCCC1SCC2=O (stereo not drawn) | > 200 µM | 105 µM | – |
| COc1ccc2c(c1)C13CCCC(C)(C(=O)NC1)C3CC2 (stereo not drawn) | > 200 µM | > 200 µM | – |
| CCOC(=O)/C(=C\c1ccc(F)cc1)[Se]c1ccccc1 | > 38.9 µM | > 38.9 µM | – |
| O=C1COc2cc(N3CCN(c4cccc(C(F)(F)F)c4)CC3)ccc2N1 | > 200 µM | > 200 µM | – |

| Structure (SMILES) | EC50 | IC50 | outcome |
| --- | --- | --- | --- |
| Cc1cccc(-n2c(=S)[nH]c3c(sc(=O)n3-c3ccccc3C)c2=O)c1 | > 2 µM | > 2 µM | – |
| O=C1NN2CCN=C2c2cnccc21 | > 1320 µM | > 1320 µM | – |
| CC1(C)Oc2ccc3ccc(=S)oc3c2[C@@H](OC(=O)C23CCC(C)(C(=O)O2)C3(C)C)[C@H]1OC(=O)C12CCC(C)(C(=O)O1)C2(C)C (stereo partly drawn) | 0.525 µM | 5.62 µM | – |
| C=C1[C@H](OC(=O)C(C)C)[C@@H](OC(C)=O)[C@@H](OC(C)=O)C(C)(C)[C@@H]2O[C@H]2[C@@H](C)C(=O)[C@@]2(OC(C)=O)C[C@@](C)(OC(C)=O)[C@H](OC(C)=O)[C@@H]2[C@H]1OC(C)=O | > 200 µM | > 200 µM | – |
| CCN1C[C@]2(C)CCC(OC)C34[C@@H]5C[C@@H]6C(OC)[C@@H]5[C@@]5(C[C@@H]6OC)OCO[C@]5([C@H]13)[C@@H](OC(C)=O)[C@@H]42 (stereo partly drawn) | – | – | inactive |
| CCCc1cc(=O)oc2c3c(cc(OC)c12)O[C@H](C)[C@H](C)C3=O | > 200 µM | 47.9 µM | – |
| Cc1ccc(Nc2nc(N)nc(N)c2N=O)cc1C | > 200 µM | > 200 µM | – |
| N#C/C(=C/n1c(=S)sc2ccccc21)c1nc2ccccc2s1 | > 200 µM | 102 µM | – |
| C=C1C(=O)OC2/C=C(\C)CC(O)/C=C(\C)CC(OC(=O)/C(=C\C)COC(C)=O)C12 (stereo not drawn) | > 115 µM | 0.407 µM | – |
| CCOC(=O)C(CC1COc2ccccc2O1)C(=O)OCC (stereo not drawn) | – | – | inactive |
| CC1=CC(=O)/C(=C/n2c(=S)[nH]c3ccc([N+](=O)[O-])cc32)C(=O)O1 | > 1000 µM | 178 µM | – |
| COC(=O)c1ccc(NCC2=CC(=O)C=CC2=O)cc1O | > 200 µM | 4.47 µM | – |
| O=C1c2ccccc2C(=O)c2c(NCCNCCO)ccc(O)c21 | – | – | inactive |
| CCOP(=O)(OCC)/C(C#N)=C/c1cc(O)ccc1O | > 832 µM | 145 µM | – |
| COC(=O)[C@H]1C2c3ccccc3-c3ccccc3C2(OC(C)=O)[C@@]1(Cl)C(=O)OC (stereo partly drawn) | > 43.7 µM | 6.31 µM | – |
| C[N+]1(C)C/C(=C\c2ccncc2)C(=O)/C(=C/c2ccncc2)C1 | – | – | inactive |
| c1ccc(CSC2(SCc3ccccc3)CCCC2)cc1 | – | – | inactive |
| CCC(=N\N=C(N)N)/C(CC)=N/N=C(N)N | > 562 µM | > 562 µM | – |
| COC(=O)C1(Cc2ccc3c(c2)CCC3)Cc2ccc3c(c2C1)CCC3 (stereo not drawn) | > 200 µM | 37.2 µM | – |
| O=C(Cc1nc2ccc(C(=O)c3ccccc3)cc2[nH]c1=O)C(=O)Nc1ccccc1[N+](=O)[O-] | > 79.4 µM | 51.3 µM | – |
| O=c1c2ccccc2n2c(-c3ccccc3O)nnc2n1-c1ccccc1 | > 200 µM | > 200 µM | – |
| COC(=O)C1=C(C(=O)OC)SC(=C(N=Nc2ccccc2)c2ccccc2)S1 | – | – | inactive |

| Structure (SMILES) | EC50 | IC50 | outcome |
| --- | --- | --- | --- |
| CC(C)C1CCC(=O)CC1CCCCC1CC(=O)CC1O[Si](C)(C)C(C)(C)C (stereo not drawn) | > 200 µM | 7.24 µM | – |
| N#CN=C(N(Cc1ccccc1)Cc1ccccc1)N(Cc1ccccc1)Cc1ccccc1 | > 39.8 µM | > 39.8 µM | – |
| [N-]=[N+]=C(C(=O)OCC#CCOC(=O)C(=[N+]=[N-])S(=O)(=O)c1ccccc1)S(=O)(=O)c1ccccc1 | > 200 µM | 135 µM | – |
| CC(C)(C)C1CNP(=O)(c2ccccc2)OC1 (stereo not drawn) | > 70.8 µM | > 70.8 µM | – |
| N=C1SCc2c1sc1ccccc21 | > 56.2 µM | 28.8 µM | – |
| O=C(/C=C/c1cccs1)c1cccc(C(=O)/C=C/c2cccs2)n1 | > 200 µM | 110 µM | – |
| CCOC(=O)C1(C#N)C(C#N)(C#N)C12CCCCC2 (stereo not drawn) (tested in a mixture with another compound) | > 200 µM | 6.03 µM | – |
| CCc1nn(Cc2ccccc2)c2nc(C)c(CCc3ccccc3)c(Cl)c12 | > 200 µM | > 200 µM | – |
| O=C1C(c2[nH]c3cc4c(cc3c2O)OCO4)=Nc2cc3c(cc21)OCO3 | > 100 µM | 14.8 µM | – |
| COc1cc(C=Nc2cc(Cl)c(N=O)c(Cl)c2)ccc1N(CCCCl)CCCCl | 5.25 µM | 22.4 µM | – |
| CCCCCCC1C=CCCN1 (stereo not drawn) | – | – | inactive |
| CC(N)C(=O)NC(C)C(=O)NC(C)C(=O)NC(C)C(=O)NC(C)C(=O)NC(C)C(=O)O (stereo not drawn) | > 100 µM | > 100 µM | inactive |
| CN1C(NN)=NS(=O)(=O)c2ccccc21 | > 115 µM | 95.5 µM | – |
| Nc1[nH]c(=S)c2c(N)n[nH]c2c1C(=O)Nc1ccc(Cl)cc1 | > 200 µM | 1.55 µM | – |
| CN=c1ccc2cc3ccc(NC)cc3oc-2c1 | > 200 µM | 37.2 µM | – |
| Cn1c2c(c3ccccc31)CCN(CCN1CCN(c3cccc(Cl)c3)CC1)C2=O | > 8.51 µM | > 8.51 µM | – |
| COc1cccc2c1C(=O)OC2c1cccc2ccccc12 (stereo not drawn) | – | – | inactive |
| Cc1nc(NC(C)(CO)CO)nc2c1C(=O)Nc1ccccc1N2 | > 200 µM | > 200 µM | – |
| CCC1(CC=C(C)C)Oc2cccnc2-n2cccc2C1=O (stereo not drawn) | > 200 µM | 117 µM | – |
| CCOC(=O)c1c(SC(=O)c2ccc(OC)cc2)n(-c2ccccc2)c(=S)n(-c2ccccc2)c1=O | > 200 µM | 28.2 µM | – |
| N/C(=C\c1ccc(OCc2ccccc2)c(OCc2ccccc2)c1[N+](=O)[O-])C(=O)O | – | – | inactive |
| O=[N+]([O-])C(=C/c1ccccc1)/C(=C\c1ccccc1)[N+](=O)[O-] | > 200 µM | 15.5 µM | – |

| Structure (SMILES) | EC50 | IC50 | outcome |
| --- | --- | --- | --- |
| CC(=O)NC(CC(C)C)C(=O)NC(Cc1ccccc1)C(=O)CCl (stereo not drawn) (Ac-Leu-Phe-CH2Cl; configuration not given here) | > 200 µM | 1.12 µM | – |
| NC(=O)N/N=C\CC(O)(C(F)(F)Cl)C(F)(F)Cl | > 200 µM | > 200 µM | – |
| O=C1CN2C=CC=CC2=NN1 | > 603 µM | 407 µM | – |
| OCC1OC(c2scc3c(=S)nc[nH]c23)C(O)C1O (stereo not drawn) | > 200 µM | 12.6 µM | – |
| COc1cc2[nH]ncc(=S)c2cc1OC | 61.7 µM | 219 µM | – |
| N#CCCN(C1=NN(C(=O)CC(=O)Nc2ccccc2)C(c2ccccc2)C1)c1ccccc1Cl (stereo not drawn) | > 269 µM | > 269 µM | – |
| c1ccc2c(c1)cc1n2CCc2c-1[nH]c1ccccc21 | > 200 µM | > 200 µM | – |
| NC1CC(=O)c2cc(Br)sc21 (stereo not drawn) | > 200 µM | > 200 µM | – |
| COc1ccc(S(=O)Cc2cc(OC)ccc2OC)cc1 (stereo not drawn) | – | – | inactive |
| COc1cccc(N2C(=O)C3c4[nH]c5ccc(C)cc5c4C4CCC(C(C)(C)C)CC4C3C2=O)c1 (stereo not drawn) | > 200 µM | 9.55 µM | – |
| Cc1ccc(S(=O)(=O)N2CCCSCCN(S(=O)(=O)c3ccc(C)cc3)CCCSCC2)cc1 | > 34.7 µM | > 34.7 µM | – |
| CCOC(=O)c1ccc(CS(=O)c2ccc(N)cc2)c([N+](=O)[O-])c1 (stereo not drawn) | > 102 µM | 26.9 µM | – |
| CC(=O)Oc1cc2c(cc1OCC(F)(F)F)[C@H]1CC[C@]3(C)[C@@H](OC(C)=O)CC[C@H]3[C@@H]1CC2=O | > 200 µM | 22.4 µM | – |
| COc1cc2cccc(N=Cc3c(Br)ccc(OC)c3OC(C)C)c2cc1OC | > 3.16 µM | > 3.16 µM | – |
| O=c1c2cccnc2[nH]c2ccc3[nH]ncc3c12 | > 200 µM | 50.1 µM | – |
| COC(=S)SSC(=S)NCCNC(=S)SSC(=S)OC | > 200 µM | 9.55 µM | – |
| O=c1c(Cl)cc2nc3ccccc3sc-2c1Cl | > 9.55 µM | 8.91 µM | – |
| O=c1oc2cccnc2n1CCN1CCN(c2ccc(Oc3ccccc3)cc2)CC1 | > 200 µM | 52.5 µM | – |
| CC1Cc2c(N)nc(NN)nc2NC1=O (stereo not drawn) | – | – | inactive |
| O=C(/C=C\c1cccc(O)c1)/C=C/c1cccc(O)c1 | 107 µM | 112 µM | – |
| CC1(CO)OC(n2cc(C(=O)NC(=O)OCc3ccccc3)c(=O)[nH]c2=O)CC1O (stereo not drawn) | > 603 µM | 372 µM | – |
| CCOC(=O)N1CCNCCN(C(=O)OCC)CCNCC1 | > 200 µM | > 200 µM | – |
